Target: DNA gyrase A/A/B/B tetramer (Escherichia coli (strain K12), UniProt P0AES4+P0AES6)
Experiment: Inhibition of Escherichia coli DNA gyrase assessed as supercoiled plasmid DNA formation after 30 mins by electrophoretic analysis

Row | Compound | IC50 [µM]
1 | C=CCOc1ccccc1/C=C/C(=O)c1ccc(O)cc1O | 500
2 | CC1(C)C2CC=C(/C=C/C(=O)c3ccc(O)cc3O)C1C2 (stereo not drawn) | 250
3 | CC[C@H](C)C(=O)c1c(O)cc(O)cc1OC/C=C(\C)CCC=C(C)C [Olympicin A] | 500
